Organism: Rattus norvegicus
Assay: Open TG-GATES - Regimen: Single
Format: toxicity, organism-based, Sprague-Dawley
Set-up: regimen Single, gender Male, age 6 weeks
Conditions: in vivo, po, 1000 mg/kg, route gavage, dose level High; for APTT / Bas / Eos / Fbg / Hb / Ht / Lym / MCH / MCHC / MCV / Mono / Neu / PT / Plat / RBC / Ret / WBC: tissue Blood; for KIDNEY_L / KIDNEY_R / KIDNEY_TOTAL: tissue Kidney; for LIVER: tissue Liver; for A/G / ALP / ALT / AST / BUN / CRE / Ca / Cl / DBIL / GLC / IP / K / LDH / Na / PL / RALB / TBIL / TC / TG / TP / gamma-GTP: tissue Plasma

Compound: COc1ccc(Cl)cc1C(=O)NCCc1ccc(S(=O)(=O)NC(=O)NC2CCCCC2)cc1 [GLYBURIDE]
- TERMINAL_BW (3 h): 216.5 g
- APTT (3 h): 18.9 s
- Bas (3 h): 0%
- Eos (3 h): 1%
- Fbg (3 h): 226.2 mg/dL
- Hb (3 h): 13.2 g/dL
- Ht (3 h): 40.8%
- Lym (3 h): 69.2%
- MCH (3 h): 20.3 pg
- MCHC (3 h): 32.5%
- MCV (3 h): 62.6 fL
- Mono (3 h): 4%
- Neu (3 h): 25%
- PT (3 h): 12.6 s
- Plat (3 h): 118.1 x10_4/uL
- RBC (3 h): 651.8 x10_4/ul
- Ret (3 h): 7.9%
- WBC (3 h): 75.5 x10_2/uL
- KIDNEY_L (3 h): 0.9 g
- KIDNEY_R (3 h): 1 g
- KIDNEY_TOTAL (3 h): 1.9 g
- LIVER (3 h): 9.5 g
- A/G (3 h): 1.6
- ALP (3 h): 1086.8 IU/L
- ALT (3 h): 43.2 IU/L
- AST (3 h): 67.2 IU/L
- BUN (3 h): 13.2 mg/dL
- CRE (3 h): 0.3 mg/dL
- Ca (3 h): 10.7 mg/dL
- Cl (3 h): 104.4 meq/L
- DBIL (3 h): 0.2 mg/dL
- GLC (3 h): 125.4 mg/dL
- IP (3 h): 7.8 mg/dL
- K (3 h): 3.7 meq/L
- LDH (3 h): 172.8 IU/L
- Na (3 h): 141.8 meq/L
- PL (3 h): 178.6 mg/dL
- RALB (3 h): 3.4 g/dL
- TBIL (3 h): 0.2 mg/dL
- TC (3 h): 85.2 mg/dL
- TG (3 h): 123 mg/dL
- TP (3 h): 5.5 g/dL
- gamma-GTP (3 h): 1.8 IU/L
- TERMINAL_BW (6 h): 217.2 g
- APTT (6 h): 19.4 s
- Bas (6 h): 0%
- Eos (6 h): 0.8%
- Fbg (6 h): 240.8 mg/dL
- Hb (6 h): 13.6 g/dL
- Ht (6 h): 41.3%
- Lym (6 h): 79.4%
- MCH (6 h): 20.7 pg
- MCHC (6 h): 32.9%
- MCV (6 h): 62.9 fL
- Mono (6 h): 2.8%
- Neu (6 h): 16.2%
- PT (6 h): 12.6 s
- Plat (6 h): 128.9 x10_4/uL
- RBC (6 h): 657 x10_4/ul
- Ret (6 h): 8.2%
- WBC (6 h): 91.7 x10_2/uL
- KIDNEY_L (6 h): 1 g
- KIDNEY_R (6 h): 1 g
- KIDNEY_TOTAL (6 h): 1.9 g
- LIVER (6 h): 9.7 g
- A/G (6 h): 1.6
- ALP (6 h): 948.2 IU/L
- ALT (6 h): 38.4 IU/L
- AST (6 h): 65.4 IU/L
- BUN (6 h): 12.4 mg/dL
- CRE (6 h): 0.4 mg/dL
- Ca (6 h): 10.6 mg/dL
- Cl (6 h): 104.2 meq/L
- DBIL (6 h): 0.1 mg/dL
- GLC (6 h): 155.8 mg/dL
- IP (6 h): 8.7 mg/dL
- K (6 h): 3.6 meq/L
- LDH (6 h): 169.2 IU/L
- Na (6 h): 141.8 meq/L
- PL (6 h): 154 mg/dL
- RALB (6 h): 3.5 g/dL
- TBIL (6 h): 0.2 mg/dL
- TC (6 h): 82.4 mg/dL
- TG (6 h): 86.4 mg/dL
- TP (6 h): 5.7 g/dL
- gamma-GTP (6 h): 1.6 IU/L
- TERMINAL_BW (9 h): 211.6 g
- APTT (9 h): 18.9 s
- Bas (9 h): 0%
- Eos (9 h): 1%
- Fbg (9 h): 228 mg/dL
- Hb (9 h): 13.3 g/dL
- Ht (9 h): 40.7%
- Lym (9 h): 76%
- MCH (9 h): 20.4 pg
- MCHC (9 h): 32.6%
- MCV (9 h): 62.5 fL
- Mono (9 h): 2.8%
- Neu (9 h): 19.6%
- PT (9 h): 12.9 s
- Plat (9 h): 115.6 x10_4/uL
- RBC (9 h): 651.2 x10_4/ul
- Ret (9 h): 7.8%
- WBC (9 h): 83.2 x10_2/uL
- KIDNEY_L (9 h): 0.9 g
- KIDNEY_R (9 h): 0.9 g
- KIDNEY_TOTAL (9 h): 1.8 g
- LIVER (9 h): 8.7 g
- A/G (9 h): 1.7
- ALP (9 h): 1050.6 IU/L
- ALT (9 h): 35.4 IU/L
- AST (9 h): 65.2 IU/L
- BUN (9 h): 12.8 mg/dL
- CRE (9 h): 0.4 mg/dL
- Ca (9 h): 10.7 mg/dL
- Cl (9 h): 103.8 meq/L
- DBIL (9 h): 0.1 mg/dL
- GLC (9 h): 139 mg/dL
- IP (9 h): 9.5 mg/dL
- K (9 h): 3.5 meq/L
- LDH (9 h): 168.2 IU/L
- Na (9 h): 142.2 meq/L
- PL (9 h): 141 mg/dL
- RALB (9 h): 3.5 g/dL
- TBIL (9 h): 0.2 mg/dL
- TC (9 h): 70.8 mg/dL
- TG (9 h): 64.2 mg/dL
- TP (9 h): 5.7 g/dL
- gamma-GTP (9 h): 0.6 IU/L
- TERMINAL_BW (24 h): 226 g
- APTT (24 h): 18.8 s
- Bas (24 h): 0.2%
- Eos (24 h): 1%
- Fbg (24 h): 215.2 mg/dL
- Hb (24 h): 13 g/dL
- Ht (24 h): 38.3%
- Lym (24 h): 77.2%
- MCH (24 h): 21.6 pg
- MCHC (24 h): 33.9%
- MCV (24 h): 63.9 fL
- Mono (24 h): 2.8%
- Neu (24 h): 18.6%
- PT (24 h): 12.8 s
- Plat (24 h): 126.5 x10_4/uL
- RBC (24 h): 600.8 x10_4/ul
- Ret (24 h): 6.8%
- WBC (24 h): 87.8 x10_2/uL
- KIDNEY_L (24 h): 1 g
- KIDNEY_R (24 h): 1 g
- KIDNEY_TOTAL (24 h): 1.9 g
- LIVER (24 h): 10.1 g
- A/G (24 h): 1.7
- ALP (24 h): 923.4 IU/L
- ALT (24 h): 35.6 IU/L
- AST (24 h): 69.2 IU/L
- BUN (24 h): 16.2 mg/dL
- CRE (24 h): 0.3 mg/dL
- Ca (24 h): 10.7 mg/dL
- Cl (24 h): 103.4 meq/L
- DBIL (24 h): 0.1 mg/dL
- GLC (24 h): 195 mg/dL
- IP (24 h): 7.7 mg/dL
- K (24 h): 3.4 meq/L
- LDH (24 h): 218.2 IU/L
- Na (24 h): 142.6 meq/L
- PL (24 h): 143.6 mg/dL
- RALB (24 h): 3.5 g/dL
- TBIL (24 h): 0.2 mg/dL
- TC (24 h): 75.4 mg/dL
- TG (24 h): 74 mg/dL
- TP (24 h): 5.5 g/dL
- gamma-GTP (24 h): 1.4 IU/L

Reference: ChEMBL document CHEMBL3885861, “Open TG-GATES”
